{"source": "patent US5998435A", "about": "“Use of a tachykinin antagonist for the manufacture of a medicament for the treatment of emesis” (priority 1998, dated 1999)", "key": {"NK1 receptor [1]": {"target": "T1, NK1 receptor (Meriones unguiculatus, UniProt Q5DUB1)", "T1 construct": "centrally NK1 receptor mediated foot-tapping response was examined in the gerbil; from tissue; host or cells: whole animal (gerbil), central NK1 receptors, i.c.v. agonist", "T1 sequence (Q5DUB1 whole entry)": "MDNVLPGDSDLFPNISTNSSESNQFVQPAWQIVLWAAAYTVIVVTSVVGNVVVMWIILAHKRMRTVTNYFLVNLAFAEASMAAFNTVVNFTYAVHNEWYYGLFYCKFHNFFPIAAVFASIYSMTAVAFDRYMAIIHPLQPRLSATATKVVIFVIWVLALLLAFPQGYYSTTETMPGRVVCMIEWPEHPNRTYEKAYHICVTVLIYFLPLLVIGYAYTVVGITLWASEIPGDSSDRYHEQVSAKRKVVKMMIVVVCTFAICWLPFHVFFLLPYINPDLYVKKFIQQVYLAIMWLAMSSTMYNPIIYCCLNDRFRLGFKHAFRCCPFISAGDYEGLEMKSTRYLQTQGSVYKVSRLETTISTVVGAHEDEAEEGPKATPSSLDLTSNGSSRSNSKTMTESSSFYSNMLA", "details": "administered systemically 30 minutes before [Sar9,Met(O2)11]-substance P; cited from earlier work"}, "cisplatin-induced emesis [2]": {"system": "cisplatin-induced emesis", "assay": "Cisplatin-induced acute emesis in the ferret", "assay_type": "in vivo", "details": "ferret", "from_the_text": "Adult male albino Fitch ferrets (>1 kg weight) were individually housed with free access to food (SDS Diet \"C\", Special Diet Services Ltd, Essex, U.K.). Thirty minutes prior to the commencement of the studies, the ferrets were presented with 100 g of commercially available tinned cat food."}, "NK1 receptor [3]": {"target": "T1, NK1 receptor", "assay": "[Sar9,Met(O2)11]substance P-induced hind foot tapping in the gerbil", "assay_type": "in vivo", "protocol": "FIG. 3. […] The duration of foot tapping (sec) was recorded for 5 minutes immediately following recovery of the animals righting reflex.\nGerbils were anaesthetized with isoflurane, and an incision was made to expose the skull. […] Animals were placed individually into observation boxes, and duration of hind foot tapping was recorded for 5 minutes immediately following recovery of the animals' righting reflex."}, "cisplatin-induced emesis [4]": {"system": "cisplatin-induced emesis", "details": "cisplatin 5 mg/kg i.p."}, "[5]": {"details": "The Compound 10 mg/kg or ondansetron 1 mg/kg i.p. three times a day"}}, "data": [{"smiles": "COc1ccccc1CN[C@H]1CCCN[C@H]1c1ccccc1", "note": "[CP-99,994]", "values": [{"measurement": "inhibition of the foot-tapping response", "setting": "NK1 receptor [1]", "result": "dose-dependentlyinhibit"}]}, {"smiles": "CN(C)CC(=O)OCC(NC(=O)C(C)(Cc1c[nH]c2ccccc12)NC(=O)OCc1cc2ccccc2o1)c1ccccc1", "note": "(stereo not shown) [Compound 2, Dimethylamino-acetic acid 2-[2-(benzofuran-2-ylmethoxycarbonylamino)-3-(1H-indol-3-yl)-2-methyl-propionylamino]-2-phenyl-ethyl ester]", "values": [{"measurement": "block of cisplatin-induced emesis", "setting": "cisplatin-induced emesis [2]", "result": "inability"}, {"measurement": "block of the foot-tapping response, s.c.", "setting": "NK1 receptor [3]; 1-100 mg/kg s.c.", "result": "failed to block"}, {"measurement": "MED, antagonism of foot-tapping response, i.c.v.", "setting": "NK1 receptor [3]; i.c.v. administration", "result": 10, "unit": "μg/animal"}]}, {"smiles": "Cc1nccn1CC1CCc2c(c3ccccc3n2C)C1=O", "note": "(stereo not shown) [ondansetron]", "values": [{"measurement": "delayed emesis during the 3 days (3-72 hours)", "setting": "cisplatin-induced emesis [4]; [5]", "result": "much lower activity"}, {"measurement": "retching and vomiting during the first 3 hours of the emetic response (acute)", "setting": "cisplatin-induced emesis [4]; [5]", "result": "completely blocked"}, {"measurement": "effect during the start of the delayed response (Day 1, 3-24 hours)", "setting": "cisplatin-induced emesis [4]; ondansetron 1 mg/kg i.p. tid", "result": "failed to show any effect"}]}]}
